This is an account of results in patent US5530126A, “Process for the preparation of substituted 6-(pyrazol-3yl)-1,4-benzoxazin-3-ones” (Monsanto Company, priority 1994, dated 1996).

The term inhibition denotes the change of the read-out against control, counted positive when it falls.

Format in all cases: in vivo
Assay [1] relates to Velvetleaf. Briefly: Pre-emergence herbicide test. The following applies: Abutilon theophrasti, read-out: % plant inhibition (Vele); for inhibition at 11210 g/ha: 11.21 kg/ha. The method, then: (§1) The tests for pre-emergence herbicide activity are conducted as follows:
(§2) Topsoil is placed in an aluminum pan and compacted to a depth of 0.95 to 1.27 cm from the top of the pan. On the top of the soil is placed a predetermined number of seeds of each of several monocotyledonous and dicotyledonous annual plant species and/or vegetative propagules of various perennial plant species. A known amount of the active ingredient dissolved or suspended in an organic solvent, e.g., acetone, or water as carrier is then applied directly to the seed bed, which is then covered with a layer of untreated topsoil to level fill the pan. After treatment, the pans are moved to a greenhouse bench where they are watered from below as needed to give adequate moisture for germination and growth.
(§3) Approximately 10-14 days (usually 11 days) after seeding and treating, the pans are observed and the results (% inhibition) are recorded.
(§4) Tables 7 and 7A below summarize the results of the pre-emergence herbicidal activity tests of compounds of this invention in weeds. The herbicidal rating shown in these tables is the percent inhibition of each plant species. The plant species usually regarded as weeds which are utilized in one set of tests, the data for which are shown in the tables, are identified by letter headings above the columns in accordance with the following legend: […]

Assay [2] concerns Downy Brome. Put plainly: Pre-emergence herbicide test. The following applies: Bromus tectorum, read-out: % plant inhibition (Dobr); for inhibition at 11210 g/ha: 11.21 kg/ha. The procedure:
as §1, §2, §3, §4

The test system of assay [3] is Morningglory. Put plainly: Pre-emergence herbicide test. The conditions noted are these: Ipomoea, read-out: % plant inhibition (Mogl); for inhibition at 11210 g/ha: 11.21 kg/ha. The procedure:
as §1, §2, §3, §4

The subject of assay [4] is Barnyardgrass. Briefly: Pre-emergence herbicide test. The following applies: Echinochloa crus-galli, read-out: % plant inhibition (Bygr); for inhibition at 11210 g/ha: 11.21 kg/ha. The method, then:
as §1, §2, §3, §4

The test system of assay [5] is Seedling johnsongrass. Briefly: Pre-emergence herbicide test. The conditions noted are these: Sorghum halepense, read-out: % plant inhibition (Sejg); for inhibition at 11210 g/ha: 11.21 kg/ha. The procedure:
as §1, §2, §3, §4

The subject of assay [6] is Annual bluegrass. Briefly: Pre-emergence herbicide test. The conditions noted are these: read-out: % plant inhibition (Anbg); for inhibition at 11210 g/ha: 11.21 kg/ha. The procedure:
as §1, §2, §3, §4

The subject of assay [7] is Cocklebur. Briefly: Pre-emergence herbicide test. The conditions noted are these: Xanthium strumarium, read-out: % plant inhibition (Cobu); for inhibition at 11210 g/ha: 11.21 kg/ha. The procedure:
as §1, §2, §3, §4

Assay [8] has as its system Yellow nutsedge. Briefly: Pre-emergence herbicide test. The conditions noted are these: Cyperus, read-out: % plant inhibition (Yens); for inhibition at 11210 g/ha: 11.21 kg/ha. The method, then:
as §1, §2, §3, §4

In assay [9] the test system is Wild buckwheat. Briefly: Pre-emergence herbicide test. The conditions noted are these: Fallopia convolvulus, read-out: % plant inhibition (Wibw). The method, then:
as §1, §2, §3, §4

Assay [10] relates to Indian Mustard. Briefly: Pre-emergence herbicide test. The following applies: Brassica juncea, read-out: % plant inhibition (Inmu); for inhibition at 11210 g/ha: 11.21 kg/ha. The procedure: as §1, §2, §3, §4
Assay [11] has as its system Velvetleaf. Put plainly: Post-emergence herbicide test. The following applies: Abutilon theophrasti, read-out: % plant inhibition (Vele); for inhibition at 11210 g/ha: 11.21 kg/ha. The source says: (§5) Topsoil is placed in aluminum pans having holes in the bottom and compacted to a depth of 0.95 to 1.27 cm from the top of the pan. A predetermined number of seeds of each of several dicotyledonous and monocotyledonous annual plant species and/or vegetative propagules for the perennial plant species are placed on the soil and pressed into the soil surface. The seeds and/or vegetative propagules are covered with soil and leveled. The pans are then placed on a bench in the greenhouse and watered from below as needed. After the plants reach the desired age (two to three weeks), each pan, is removed individually to a spraying chamber and sprayed by means of an atomizer, operating at a spray pressure of 170.3 kPa (10 psig) at the application rates noted. In the spray solution is an amount of an emulsifying agent mixture to give a spray solution or suspension which contains about 0.4% by volume of the emulsifier. The spray solution or suspension contains a sufficient amount of the candidate chemical in order to give application rates of the active ingredient corresponding to those shown in Tables 8 and 8A, while applying a total amount of solution or suspension equivalent to 1870 L/Ha (200 gallons/acre). The pans were returned to the greenhouse and watered as before and the injury to the plants as compared to the control is observed at approximately 10-14 days (usually 11 days) and in some instances observed again at 24-28 days (usually 25 days) after spraying. The post-emergent herbicidal activity shown in these tables is the percent inhibition of each plant species.

In assay [12] the test system is Downy Brome. Put plainly: Post-emergence herbicide test. The conditions noted are these: Bromus tectorum, read-out: % plant inhibition (Dobr); for inhibition at 11210 g/ha: 11.21 kg/ha.
From the text: as §5

The subject of assay [13] is Morningglory. Put plainly: Post-emergence herbicide test. The following applies: Ipomoea, read-out: % plant inhibition (Mogl); for inhibition at 11210 g/ha: 11.21 kg/ha.
From the text: as §5

Assay [14] has as its system Barnyardgrass. Put plainly: Post-emergence herbicide test. The conditions noted are these: Echinochloa crus-galli, read-out: % plant inhibition (Bygr); for inhibition at 11210 g/ha: 11.21 kg/ha.
From the text: as §5

Assay [15] concerns Seedling johnsongrass. Briefly: Post-emergence herbicide test. The conditions noted are these: Sorghum halepense, read-out: % plant inhibition (Sejg); for inhibition at 11210 g/ha: 11.21 kg/ha.
From the text: as §5

Assay [16] concerns Annual bluegrass. Briefly: Post-emergence herbicide test. The following applies: read-out: % plant inhibition (Anbg); for inhibition at 11210 g/ha: 11.21 kg/ha.
From the text: as §5

Assay [17] deals with Cocklebur. Put plainly: Post-emergence herbicide test. The conditions noted are these: Xanthium strumarium, read-out: % plant inhibition (Cobu); for inhibition at 11210 g/ha: 11.21 kg/ha.
From the text: as §5

Assay [18] has as its system Yellow nutsedge. Briefly: Post-emergence herbicide test. The following applies: Cyperus, read-out: % plant inhibition (Yens); for inhibition at 11210 g/ha: 11.21 kg/ha.
From the text: as §5

Assay [19] deals with Wild buckwheat. Briefly: Post-emergence herbicide test. The conditions noted are these: Fallopia convolvulus, read-out: % plant inhibition (Wibw); for inhibition at 11210 g/ha: 11.21 kg/ha.
From the text: as §5

Assay [20] concerns Indian Mustard. Put plainly: Post-emergence herbicide test. The following applies: Brassica juncea, read-out: % plant inhibition (Inmu); for inhibition at 11210 g/ha: 11.21 kg/ha.
From the text: as §5

Consider `CCOC(=O)C(C)Oc1cc(-c2nn(C)c(C(F)(F)F)c2Cl)c(F)cc1Cl` (centres unmarked) [Compound 229, 2-(2-Chloro-5-(4-chloro-1-methyl-5-(trifluoromethyl)-1H-pyrazol-3-yl)-4-fluorophenoxy)propanoic acid, ethyl ester], for which the inhibition at 1120 g/ha in the assay with Velvetleaf [1] (1.12 kg/ha) was 100%; with Downy Brome [2] (1.12 kg/ha), 100%; with Morningglory [3] (1.12 kg/ha), 100%; with Barnyardgrass [4] (1.12 kg/ha) it was 90%; in the assay on Seedling johnsongrass [5] (1.12 kg/ha), 100%; in the assay on Annual bluegrass [6] (1.12 kg/ha) it was 100%. Also, the inhibition at 1120 g/ha in the assay with Cocklebur [7] (1.12 kg/ha) was found to be 90%; with Yellow nutsedge [8] (1.12 kg/ha) it was 60%; in the assay on Wild buckwheat [9] (1.12 kg/ha) it was 100%; in the assay with Indian Mustard [10] (1.12 kg/ha), 100%; in the assay on Velvetleaf [11] (1.12 kg/ha) it was 100%; in the assay with Downy Brome [12] (1.12 kg/ha) it was 90%. Also, the inhibition at 1120 g/ha in the assay on Morningglory [13] (1.12 kg/ha) was 100%; in the assay on Barnyardgrass [14] (1.12 kg/ha) it was 100%; in the assay with Seedling johnsongrass [15] (1.12 kg/ha) it was 100%; in the assay on Annual bluegrass [16] (1.12 kg/ha) it was 70%; in the assay with Cocklebur [17] (1.12 kg/ha) it was 100%; with Yellow nutsedge [18] (1.12 kg/ha) it was 40%. Also, the inhibition at 1120 g/ha in the assay on Wild buckwheat [19] (1.12 kg/ha) and with Indian Mustard [20] (1.12 kg/ha) was 100% in each case.

Turning to `Cn1nc(-c2cc(CBr)c(Cl)cc2F)c(Cl)c1C(F)(F)F` [Compound 108, 3-[5-(bromomethyl)-4-chloro-2-fluorophenyl]-4-chloro-1-methyl-5-(trifluoromethyl)-1H-pyrazole], the inhibition at 11210 g/ha in the assay on Velvetleaf [1] is 100%; in the assay with Downy Brome [2], 100%; in the assay with Morningglory [3], 90%; in the assay on Barnyardgrass [4], 100%; in the assay with Seedling johnsongrass [5], 90%; with Annual bluegrass [6], 50%. Besides, the inhibition at 11210 g/ha turned out to be 80% with Cocklebur [7]; 20% with Yellow nutsedge [8]; 100% with Wild buckwheat [9] (11.21 kg/ha); 100% in the assay with Indian Mustard [10]; 100% in the assay with Velvetleaf [11]; 100% in the assay on Downy Brome [12]. In addition, the inhibition at 11210 g/ha came to 100% in the assay with Morningglory [13]; 100% in the assay with Barnyardgrass [14]; 90% in the assay with Seedling johnsongrass [15]; 90% with Annual bluegrass [16]; 100% in the assay with Cocklebur [17]; 0% in the assay with Yellow nutsedge [18]. The inhibition at 11210 g/ha in the assay with Wild buckwheat [19] and in the assay with Indian Mustard [20] was 100% each time.

In the case of `Cn1nc(C(F)(F)F)c(Br)c1-c1cc(F)ccc1F` [Compound 68], the inhibition at 11210 g/ha with Velvetleaf [1] was 40%; with Downy Brome [2], 0%; in the assay on Morningglory [3] it was 30%; in the assay with Barnyardgrass [4], 10%; with Seedling johnsongrass [5] it was 10%; in the assay with Annual bluegrass [6], 0%. In addition, the inhibition at 11210 g/ha with Cocklebur [7] is 0%; in the assay with Yellow nutsedge [8], 30%; in the assay with Indian Mustard [10] it was 0%; with Velvetleaf [11], 0%; in the assay on Downy Brome [12] it was 0%; with Morningglory [13], 0%. Moreover, the inhibition at 11210 g/ha in the assay with Barnyardgrass [14], in the assay on Seedling johnsongrass [15], with Annual bluegrass [16], in the assay on Cocklebur [17], in the assay with Yellow nutsedge [18] and with Wild buckwheat [19] was 0% throughout. Besides, the inhibition at 11210 g/ha in the assay with Indian Mustard [20] was determined as 0%.
